Data taken from US20120316137A1, “Methods and Compositions for Treating Cancer” (priority 2009, published 2012).
“Also recorded” adds a separate entry of the source. Read-outs that look alike come from different tables or passages of the source.

What was measured:
[1] = test system: refractory hematologic malignancies (CML, Ph+ ALL); assay: Phase 1 clinical trial: hematologic, cytogenetic and molecular responses; format: in vivo, human; conditions: for complete hematologic response (CHR) in CP patients: overall best response
Excerpt: Fifty-seven patients (30 males) were enrolled and treated, median age 61 years (range 26-85) and median years from diagnosis 5.4 (0-21). Diagnoses included 50 CML (37 chronic [CP], 7 accelerated [AP], 6 blast phase [BP]), 3 Ph+ ALL, and 4 other malignancies (2 myelofibrosis, 1 myeloma, and 1 MDS).

[2] = test system: Kasumi-1 cells (c-KIT N822K); assay: Cell viability assay (72 h); format: cell-based; conditions: Homo sapiens, Kasumi 1, 72 h, read-out: Cell viability IC50 (nM)
[3] = test system: MV4-11 xenografts (FLT3-ITD); assay: MV4-11 subcutaneous xenograft efficacy; format: in vivo, CB.17 SCID mice
[4] = test system: refractory AML with a FLT3-ITD mutation; assay: Preliminary clinical trial result in AML; format: in vivo, human; conditions: 45 mg daily p.o., one patient
[5] = test system: MFE-296 endometrial cancer cells (FGFR2 N549K); assay: Cell growth assay (72 h); format: cell-based; conditions: Homo sapiens
[6] = test system: FGFR2-mutant AN3CA tumor xenograft; assay: AN3CA xenograft, compound 1 and ridaforolimus (Example 9); format: in vivo, nude mice
[7] = test system: Ba/F3 cells expressing BCR-ABL^T315I; conditions: for Wells with outgrowth: 480 wells surveyed
[8] = test system: FLT3, KIT, FGFR1 and PDGFRα in leukemic cell lines (panel); conditions: read-out: IC50 for inhibition of phosphorylation of all 4 RTKs; range over the 4 cell lines
[9] = test system: SNU16 gastric cancer cells with amplified FGFR2; assay: cells; conditions: Homo sapiens, SNU-16, read-out: Cell growth GI50 (nM)
[10] = test system: AN3CA endometrial cancer cells with mutant FGFR2 (N549K); assay: cells; conditions: Homo sapiens, AN3-CA, read-out: Cell growth GI50 (nM)
ERBB4 = ERBB4 (Homo sapiens, UniProt Q15303); assay: Kinase assay (RBC)
Sequence of ERBB4 (Q15303 718-985 limits assumed): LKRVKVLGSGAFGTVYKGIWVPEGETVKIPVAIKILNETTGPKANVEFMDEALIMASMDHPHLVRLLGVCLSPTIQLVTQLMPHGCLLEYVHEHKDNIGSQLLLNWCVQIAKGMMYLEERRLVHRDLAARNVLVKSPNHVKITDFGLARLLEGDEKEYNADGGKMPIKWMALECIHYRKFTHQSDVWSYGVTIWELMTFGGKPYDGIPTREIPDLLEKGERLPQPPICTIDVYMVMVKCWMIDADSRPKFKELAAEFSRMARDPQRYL

[11] = test system: Phospho-FRS2a in KatoIII cells; assay: Western immunoblotting; conditions: Homo sapiens, KATO III, read-out: Phospho-FRS2a IC50 (nM)
[12] = test system: Phospho-Erk1/2 in SNU16 cells; assay: Western immunoblotting; conditions: Homo sapiens, SNU-16, read-out: Phospho-Erk1/2 IC50 (nM)
[13] = test system: Phospho-FRS2a in Hec1B cells; assay: Western immunoblotting; conditions: Homo sapiens, HEC-1B, read-out: Phospho-FRS2a IC50 (nM)
[14] = test system: Phospho-Erk1/2 in MFE-296 cells; assay: Western immunoblotting; conditions: Homo sapiens, MFE-296, read-out: Phospho-Erk1/2 IC50 (nM)
P-FRS2a in OPM2 cells = assay: Western immunoblotting; conditions: Homo sapiens, OPM-2, read-out: IC50 for P-FRS2a
[15] = test system: KG1 cells (FGFR1OP2-FGFR1); assay: Cell viability assay (72 h); conditions: Homo sapiens, KG-1, 72 h, read-out: Cell viability IC50 (nM)
K562 CML leukemia cells = assay: Cellular proliferation assay; conditions: Homo sapiens
LAMA CML leukemia cells = assay: Cellular proliferation assay
[16] = test system: MV4-11, Kasumi-1, KG1 and EOL1 cells (panel); assay: Cell viability assay, panel summary; conditions: read-out: IC50 for inhibition of viability of all 4 cell lines
[17] = test system: FGFR2-driven AN3CA endometrial tumor xenograft; assay: AN3CA subcutaneous xenograft (Example 7); conditions: 30 mg/kg oral daily, 12 days
[18] = test system: FGFR-2 mutant AN3CA endometrial tumor xenograft; assay: AN3CA subcutaneous xenograft (Example 8); conditions: mouse, in vivo
[19] = test system: FGFR4 signaling in MDA-453 breast cells (Y367C); assay: Signaling (Western immunoblotting), Table 12; conditions: MDA-453, read-out: Signaling IC50 (nM)
[20] = test system: Ba/F3 cells expressing BCR-ABL^T315I; assay: CrkL phosphorylation immunoblot in Ba/F3 cells; conditions: 4 h
[21] = test system: FLT3-ITD positive primary blasts; assay: Ex vivo viability of primary AML cells (MTS, 72 h); conditions: Homo sapiens, read-out: IC50, viability
[22] = test system: wild-type FLT3 primary blasts; assay: Ex vivo viability of primary AML cells (MTS, 72 h)
[23] = T315I patients evaluable for CyR

**Q.** What does the source list for `Cc1ccc(C(=O)Nc2ccc(CN3CCN(C)CC3)c(C(F)(F)F)c2)cc1C#Cc1cnc2cccnn12` [Compound 1, 3-(imidazo[1,2-b]pyridazin-3-ylethynyl)-4-methyl-N-(4-((4-methylpiperazin-1-yl)-methyl)-3-(trifluoromethyl)phenyl)benzamide]?
**A.** AP, BP, or ALL patients achieving CCyR [1, 23]: 1; AP, BP, or ALL patients achieving MCyR [1, 23]: 3; CP patients achieving CCyR [1, 23]: 5; CP patients achieving MCyR [1, 23]: 6; MHR in AP, BP, or ALL patients ([1]; T315I subset): 3 of 8; MMRs in patients with T315I at baseline ([1]; human, in vivo): 4; MMRs ([1]; in 32 CP patients): 8; MCyR ([1]; overall): 12; complete cytogenetic responses (CCyR) ([1]; overall): 8; major hematologic response (MHR) in AP, BP, or ALL patients ([1]; overall): 5 of 12; complete hematologic response (CHR) in CP patients [1]: 85%; complete hematologic response (CHR) in CP patients ([1]; incl. new and baseline CHR): 22 of 22; IC50 [2]: 8 nM; TGI ([3]; 1 mg/kg oral once daily, 28 days, day 0 to day 24): 46%; tumor response ([3]; 10 or 25 mg/kg, 31-day follow up): complete and durable tumor regression; clinical response [4]: complete response; GI50 [5]: 72 nM; TGI (%) ([6]; Compound 1 10 mg/kg alone): 26%; TGI (%) ([6]; Compound 1 30 mg/kg alone): 81%; Occurrences (n), by specific compound mutation (with T315I) ([7]; 20 nM, 20 clones sequenced, T315I only): 20; Frequency among clones (%) ([7]; 20 nM, T315I only): 100.0%; Wells with outgrowth ([7]; 40 nM): 192; Frequency by residue (%) ([7]; 320 nM, E255): 100.0%; Occurrences (n), by residue ([7]; 320 nM, E255): 1; Wells with outgrowth ([7]; 640 nM): 0; IC50 [8]: […]; GI50 [9]: 42 nM; GI50 [10]: 30 nM; IC50 (ERBB4): 176 nM; IC50 [11]: 34 nM; IC50 [12]: 8 nM; IC50 [13]: > 1000 nM; IC50 [14]: 5.5 nM; IC50 (P-FRS2a in OPM2 cells): 65 nM; IC50 [15]: 17 nM; IC50 (K562 CML leukemia cells): 3.9 nM; IC50 (LAMA CML leukemia cells): 0.3 nM; IC50 [16]: 0.5 to 17 nM; inhibition of AN3CA tumor growth [17]: 62%; inhibition of AN3CA tumor growth [18]: 49%; IC50 [19]: 30 nM; effect on CrkL phosphorylation [20]: only compound 1 demonstrated activity against the T315I mutant; also recorded: marked reduction in % pCrkL; IC50 [21]: 4 nM; IC50 ([22]; Homo sapiens, 72 h, read-out: IC50, viability): > 100 nM; effect on viability ([22]; concentrations tested up to 100 nM, 72 hours): no reduction in viability
